Data as given in patent publication US7769423B2 (Duke University, priority 2002, dated 2010).

How the values were obtained:
[1] = In vitro MRI T1 relaxivity measurements as a function of temperature and concentration; format: physicochemical; conditions: linear regression, in vitro samples, 2-T magnet
Description: Three control stock solutions of manganese sulfate (MnSO4.H2O), free DOX and MnSO4.H2O in a molar ratio of 0.902:1 (DOX:Mn), and MnSO4.H2O with thermally sensitive liposomes that were formed without the presence of MnSO4.H2O. These solutions, along with liposome solutions, were then diluted to concentrations from 0.25-8 mM. The solutions were placed in […] NMR tubes cut to a three-inch length.
All MRI experiments were performed at the Center for In vivo Microscopy at Duke University in a 2-T 30-cm bore diameter magnet (Signa, G.E. Medical Systems, Milwaukee, Wis.). […] Each experiment had six to eight sample tubes, which were contained within an exposed sample holder, and placed inside a 3.81 cm birdcage coil providing RF excitation. […]
Images that were obtained were analyzed by selecting a region of interest and measuring average intensity for each sample dilution. […]
To quantify the concentration of drug in vivo using MRI, in vitro experiments were performed to determine the concentration- and temperature-dependence of T1 shortening. These experiments measured signal intensity resulting from proton spin realignment to the bulk magnetic field after excitation from repetitive radio frequency pulses. […] MnSO4 liposome-DOX formulation measured over a range of drug concentrations (T=29.9° C.). […]

[2] = system: fibrosarcoma (FSA-1); experiment: Antitumor effect: time for tumors to reach five times the volume on the day of treatment; format: in vivo, rat
Description: Tumor model. […] The fibrosarcoma was transplanted subcutaneously in the flanks of 8-week-old female Fischer 344 rats (Charles River Laboratories, Wilmington, Mass., U.S.A.) under anesthesia using intraperitoneal ketamine (9 mg/kg body weight) and xylazine (10 mg/kg body weight). Tumors were allowed to grow for approximately 2 weeks to a diameter of 10-12 mm before treatment.
Each group of rats (except the control group) received an equivalent dose of 5 mg doxorubicin/kg body weight by intravenous injection and/or 1 hour of hyperthermia. Local hyperthermia was delivered by means of an 18-gauge catheter that was placed through the center of the tumor and through which heated water (˜50° C., 1.8 mL/s) was passed.
The remaining 6-7 rats in each treatment group were included in the survival analysis. […] Final images were taken after tumors cooled to room temperature. […] After therapy, the rats were monitored as they recovered from anesthesia. Tumor volumes were measured three times per week for 60 days or until the tumor volume reached five times the volume on the day of treatment. At these endpoints, the rats were killed by carbon dioxide asphyxiation. […] The five-times-the-initial-volume cutpoint was chosen based on guidelines from the institutional animal care and use committee. No rats were killed before the specified endpoints were reached.
Descriptive summary statistics are expressed as mean values with 95% confidence intervals, except for the time-to-five-times-tumor-volume data, which are expressed as median values with 95% confidence intervals. To avoid assuming a normal distribution, nonparametric or semi-parametric statistical methods were used. Group comparisons were conducted with the Kruskal-Wallis test for more than two groups and the Wilcoxon test for between-group differences. For the antitumor efficacy data, the primary endpoint (time to reach five times the original tumor volume) was analyzed by the Kaplan-Meier product-limit method, using the Wilcoxon rank test for between-group differences. […]

[3] = at physiological temperatures; Unger 1993; cited from earlier work
[4] = system: fibrosarcomas implanted in the flank of Fisher 344 rats; experiment: In vivo MRI signal enhancement and signal intensity ratio (SIR) in rats bearing flank fibrosarcomas, catheter hyperthermia
Description: Fibrosarcocomas were transplanted in the flank of fisher 344 rats and allowed to grow to 17-19 mm in diameter. Rats were anesthetized with pentobarbital (source/amount) and a 16 gauge catheter was placed through the center of the tumor. Heated water (56° C., 1.8 ml/s) was passed through the catheter to provided hyperthermia. During MRI scans, the heating water was doped with 0.25 M MnSO4 to prevent flow image artifacts. Gradient recalled echo was used with a Tr of 23 ms, Te of 1.4 ms, and flip angles of 5, 15, 30, 40, 50, 60 degrees for the initial T1 weighted image. Subsequent drug uptake scans were performed at a flip angle of 33°. 3D volume images, 12 slices 1 mm thick, were taken with a field of view of 6 cm with a pixel size of 234×234 μm. Four and signal image averaging was used for liposome and Gd-DTPA experiments yielding scan times of 1 min, 45 sec and 30 sec respectively.
1NEX image averaging was used for the first twenty minutes of liposome or Gd uptake. Subsequent images were taken at 4NEX for the remainder of the experiment (90-120 minutes).
The liposome formulations were studied in fibrosarcomas implanted in the flank of Fisher 344 rats. The center of the tumor was heated using a catheter through which hot was water circulated. […] Liposomes were then administered intravenously, followed by MR imaging.
In vivo drug relative concentrations were performed by signal intensity image analysis over regions of interest (ROI) within heated tumors. The white boxes present in FIGS. 2A, 2B and 2C indicate these ROIs. […] Muscle in the non-tumor bearing leg of the animal was used as a non-heated, normal tissue control.

[5] = cited from earlier work

SMILES: O=S(=O)([O-])[O-].[Mn+2] [MnSO4, manganese sulfate]
- intercept of relaxivity as a function of temperature (intercept±S.E.) [1]: 7.28 ± 0.12 mM/s
- slope of relaxivity as a function of temperature (slope±S.E.) [1]: −0.082±0.003 (mM·sec·° C.)^−1

SMILES: COc1cccc2c1C(=O)c1c(O)c3c(c(O)c1C2=O)C[C@@](O)(C(=O)CO)C[C@@H]3O[C@H]1C[C@H](N)[C@H](O)[C@H](C)O1 [free doxorubicin, doxorubicin]
- tumor growth time / growth delay ([2]; alone, without hyperthermia): statistically significantly longer tumor growth times than the saline control
- complete tumor regression upon censoring at 60 days ([2]; during / plus hyperthermia): one of the six rats
- tumor growth time / growth delay ([2]; with hyperthermia): statistically significantly longer tumor growth times than the saline control

SMILES: O=C([O-])CN(CCN(CC(=O)[O-])CC(=O)[O-])CCN(CC(=O)[O-])CC(=O)[O-].[Gd+3] [Gd-DTPA]
- relaxivity [3]: approximately 44.5 (mM·sec·° C.)^−1
- time to reach SIR plateau in tumor-enhancing region ([4]; enhanced tumor region): ≤ 10 min
- femoral vessel SIR value reached ([4]; femoral vein, normalized to non-heated muscle): 2.0
- time at which femoral vessel SIR value was reached ([4]; femoral vein, post injection): 10 min
- MR signal enhancement pattern ([4]; without hyperthermia (HT)): Enhancement occurs in all tissues with a high degree of non-uniformity in the tumor
- fraction excreted in urine ([5]; in about 6 hours): 83%±14%
- mean elimination half-life ([5]; in vivo): about 0.2±0.13 hours
